Laboratory results taken from US4220641A, “Organic compounds” (Sandoz Ltd., priority 1977, dated 1980).

Experiments:
[1] = test system: mice spleen lymphoctyes stimulated with Concanavalin A; test: lymphocyte stimulation test according to Janossy in vitro; type: cell-based; conditions: concentrations of 0.01 to 10.0 μg/ml, Concanavalin A stimulated mice spleen lymphocytes
ear swelling = test: Oxazolon test in mice; type: in vivo; conditions: 5×70 mg/kg p.o.
Protocol: (b) Oxazolon test in mice:
A decrease in the ear swelling is observed upon administration of 5×70 mg/kg p.o. of the compound.

Compound	inhibition of H^3-thymidine incorporation [1]	inhibition of the blastogenese [1]	inhibition of the proliferation rate [1]	ear swelling (ear swelling)
C/C=C/C[C@@H](C)[C@@H](O)[C@H]1C(=O)N[C@@H](C(C)C)C(=O)N(C)CC(=O)N(C)[C@@H](CC(C)C)C(=O)N[C@@H](C(C)C)C(=O)N(C)[C@@H](CC(C)C)C(=O)N[C@@H](C)C(=O)N[C@H](C)C(=O)N(C)[C@@H](CC(C)C)C(=O)N(C)[C@@H](CC(C)C)C(=O)N(C)[C@@H](C(C)C)C(=O)N1C [cyclosporin D]	strong inhibition	strong inhibition	strong inhibition	decrease
CCCC[C@@H](C)[C@@H](O)C1C(=O)N[C@@H](C(C)C)C(=O)N(C)CC(=O)N(C)[C@@H](CC(C)C)C(=O)N[C@@H](C(C)C)C(=O)N(C)[C@@H](CC(C)C)C(=O)N[C@@H](C)C(=O)N[C@H](C)C(=O)N(C)[C@@H](CC(C)C)C(=O)N(C)[C@@H](CC(C)C)C(=O)N(C)[C@@H](C(C)C)C(=O)N1C (some centres unmarked) [dihydrocyclosporin D]	strong inhibition	strong inhibition	strong inhibition	decrease
